{"source": "ChEMBL document CHEMBL5352493", "about": "“Dual inhibitors of ASK1 and PDK1 kinases: Design, synthesis, molecular docking and mechanism studies of N-benzyl pyridine-2-one containing derivatives as anti-fibrotic agents” (Eur J Med Chem, 2023)", "key": {"[1]": {"test_system": "HFL1", "assay": "Induction of apoptosis in HLF1 cells assessed as viable cells at 10 uM incubated for 24 hrs measured by annexinV-FITC/PI based flow cytometric analysis (reference value: 88.3%)", "type": "functional", "conditions": "Homo sapiens, read-out: Activity"}, "[2]": {"test_system": "HFL1", "assay": "Induction of apoptosis in HLF1 cells assessed as necrotic cells at 10 uM incubated for 24 hrs measured by annexinV-FITC/PI based flow cytometric analysis (reference value: 0%)", "type": "functional, Homo sapiens"}, "[3]": {"test_system": "HFL1", "assay": "Induction of apoptosis in HLF1 cells assessed as necrotic cells at 5 uM incubated for 24 hrs measured by annexinV-FITC/PI based flow cytometric analysis (reference value: 0%)", "type": "functional, Homo sapiens"}, "[4]": {"test_system": "HFL1", "assay": "Antifibrotic activity in TGF-beta1 induced HLF1 cells assessed as decrease in phosphorylated smad2 level measured at 5 to 10 uM after 24 hrs by Western blotting analysis", "type": "functional, cell-based", "conditions": "Homo sapiens, dose 5-10 µM"}, "[5]": {"molecular_target": "T1, Mitogen-activated protein kinase kinase kinase 5 (Homo sapiens, UniProt Q99683)", "T1 sequence (Q99683 whole entry)": "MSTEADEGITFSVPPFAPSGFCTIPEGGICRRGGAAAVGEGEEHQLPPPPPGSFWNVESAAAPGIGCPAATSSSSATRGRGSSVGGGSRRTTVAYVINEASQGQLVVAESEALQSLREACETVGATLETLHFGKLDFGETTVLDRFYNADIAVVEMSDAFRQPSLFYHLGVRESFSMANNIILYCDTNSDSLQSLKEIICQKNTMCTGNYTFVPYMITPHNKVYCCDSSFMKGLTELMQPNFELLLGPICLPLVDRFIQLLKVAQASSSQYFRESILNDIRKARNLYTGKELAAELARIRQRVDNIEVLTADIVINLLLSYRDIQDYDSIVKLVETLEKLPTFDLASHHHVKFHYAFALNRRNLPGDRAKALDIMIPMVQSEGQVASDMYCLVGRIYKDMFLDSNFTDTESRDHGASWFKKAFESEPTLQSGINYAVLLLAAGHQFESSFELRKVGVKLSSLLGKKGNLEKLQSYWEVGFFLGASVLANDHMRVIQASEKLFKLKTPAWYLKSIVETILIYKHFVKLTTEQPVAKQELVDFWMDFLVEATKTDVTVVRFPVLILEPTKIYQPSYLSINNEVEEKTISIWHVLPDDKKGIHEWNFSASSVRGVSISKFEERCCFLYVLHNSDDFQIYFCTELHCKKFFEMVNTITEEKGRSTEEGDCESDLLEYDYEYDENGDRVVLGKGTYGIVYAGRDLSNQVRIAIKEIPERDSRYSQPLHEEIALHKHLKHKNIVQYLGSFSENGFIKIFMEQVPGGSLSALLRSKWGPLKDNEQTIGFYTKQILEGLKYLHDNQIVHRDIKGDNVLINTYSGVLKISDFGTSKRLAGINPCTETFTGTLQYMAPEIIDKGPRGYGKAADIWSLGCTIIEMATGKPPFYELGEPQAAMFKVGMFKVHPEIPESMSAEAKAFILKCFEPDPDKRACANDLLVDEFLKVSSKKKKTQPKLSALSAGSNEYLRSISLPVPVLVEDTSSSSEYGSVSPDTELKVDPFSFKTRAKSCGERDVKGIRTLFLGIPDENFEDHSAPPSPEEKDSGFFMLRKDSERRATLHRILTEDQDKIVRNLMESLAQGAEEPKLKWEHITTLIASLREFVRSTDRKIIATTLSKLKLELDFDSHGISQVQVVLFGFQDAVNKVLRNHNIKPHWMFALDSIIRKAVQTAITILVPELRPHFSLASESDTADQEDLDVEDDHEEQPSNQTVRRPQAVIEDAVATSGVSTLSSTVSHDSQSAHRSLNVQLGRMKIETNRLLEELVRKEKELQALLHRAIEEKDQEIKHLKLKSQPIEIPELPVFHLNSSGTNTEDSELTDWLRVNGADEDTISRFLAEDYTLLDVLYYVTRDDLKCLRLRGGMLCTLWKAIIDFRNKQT", "assay": "Inhibition of human recombinant ASK1 using MBP as substrate preincubated for 1 hr followed by reagent addition incubated for 40 mins by ATP-Glo kinase assay"}, "[6]": {"test_system": "HFL1", "assay": "Induction of apoptosis in HLF1 cells assessed as necrotic cells at 15 uM incubated for 24 hrs measured by annexinV-FITC/PI based flow cytometric analysis (reference value: 0%)", "type": "functional, Homo sapiens"}, "[7]": {"test_system": "HFL1", "assay": "Antifibrotic activity in TGF-beta1 induced HLF1 cells assessed as decrease in alpha SMA expression level measured at 5 to 10 uM after 24 hrs by Western blotting analysis", "type": "functional, cell-based", "conditions": "Homo sapiens, dose 5-10 µM"}, "[8]": {"test_system": "HFL1", "assay": "Induction of apoptosis in HLF1 cells assessed as early apoptotic cells at 5 uM incubated for 24 hrs measured by annexinV-FITC/PI based flow cytometric analysis (reference value: 11.6%)", "type": "functional, Homo sapiens"}, "[9]": {"test_system": "HFL1", "assay": "Induction of apoptosis in HLF1 cells assessed as viable cells at 5 uM incubated for 24 hrs measured by annexinV-FITC/PI based flow cytometric analysis (reference value: 88.3%)", "type": "functional", "conditions": "Homo sapiens, read-out: Activity"}, "[10]": {"assay": "Antiproliferative against rat NRK-49F cells measured after 48 hrs by CCK8 assay", "type": "toxicity, cell-based"}, "[11]": {"test_system": "HFL1", "assay": "Induction of apoptosis in HLF1 cells assessed as late apoptotic cells at 5 uM incubated for 24 hrs measured by annexinV-FITC/PI based flow cytometric analysis (reference value: 0.08%)", "type": "functional, Homo sapiens"}, "[12]": {"test_system": "HFL1", "assay": "Antifibrotic activity in TGF-beta1 induced HLF1 cells assessed as decrease in phosphorylated smad3 level measured at 5 to 10 uM after 24 hrs by Western blotting analysis", "type": "functional, cell-based", "conditions": "Homo sapiens, dose 5-10 µM"}, "[13]": {"assay": "Antiproliferative against HLF1 cells measured after 48 hrs by CCK8 assay", "type": "toxicity, cell-based", "conditions": "human, HFL1 cells (description prints HLF1)"}, "[14]": {"test_system": "HFL1", "assay": "Downregulation of phosphorylated ASK1 in TGF-beta1 induced HFL1 cells at 5 to 10 uM for 24 hrs by Western blotting analysis", "type": "functional, cell-based", "conditions": "Homo sapiens, dose 5-10 µM"}, "[15]": {"test_system": "HFL1", "assay": "Induction of apoptosis in HLF1 cells assessed as late apoptotic cells at 15 uM incubated for 24 hrs measured by annexinV-FITC/PI based flow cytometric analysis (reference value: 0.08%)", "type": "functional, Homo sapiens"}, "[16]": {"test_system": "HFL1", "assay": "Downregulation of phosphorylated PDK1 in TGF-beta1 induced HFL1 cells at 5 to 10 microM for 24 hrs by Western blotting analysis", "type": "functional, cell-based", "conditions": "Homo sapiens, dose 5-10 µM"}, "[17]": {"assay": "Antiproliferative against rat HSC-T6 cells measured after 48 hrs by CCK8 assay", "type": "toxicity, cell-based"}, "[18]": {"test_system": "HFL1", "assay": "Induction of apoptosis in HLF1 cells assessed as decrease in antiapoptotic Bcl-2 protein at 5 to 10 uM for 24 hrs by Western blotting analysis", "type": "functional, cell-based", "conditions": "Homo sapiens, dose 5-10 µM"}, "[19]": {"test_system": "HFL1", "assay": "Downregulation of phosphorylated Akt in TGF-beta1 induced HFL1 cells at 10 microM for 24 hrs by Western blotting analysis", "type": "functional, cell-based", "conditions": "Homo sapiens"}, "[20]": {"test_system": "HFL1", "assay": "Antifibrotic activity in TGF-beta1 induced HLF1 cells assessed as decrease in collagen-I expression level measured at 5 to 10 uM after 24 hrs by Western blotting analysis", "type": "functional, cell-based", "conditions": "Homo sapiens, dose 5-10 µM"}, "[21]": {"test_system": "HFL1", "assay": "Induction of apoptosis in HLF1 cells assessed as early apoptotic cells at 15 uM incubated for 24 hrs measured by annexinV-FITC/PI based flow cytometric analysis (reference value: 11.6%)", "type": "functional, Homo sapiens"}, "[22]": {"test_system": "HFL1", "assay": "Induction of apoptosis in HLF1 cells assessed as viable cells at 15 uM incubated for 24 hrs measured by annexinV-FITC/PI based flow cytometric analysis (reference value: 88.3%)", "type": "functional", "conditions": "Homo sapiens, read-out: Activity"}, "[23]": {"test_system": "HFL1", "assay": "Downregulation of phosphorylated p38 in TGF-beta1 induced HFL1 cells at 5 to 10 uM for 24 hrs by Western blotting analysis", "type": "functional, cell-based", "conditions": "Homo sapiens, dose 5-10 µM"}, "[24]": {"test_system": "HFL1", "assay": "Induction of apoptosis in HLF1 cells assessed as early apoptotic cells at 10 uM incubated for 24 hrs measured by annexinV-FITC/PI based flow cytometric analysis (reference value: 11.6%)", "type": "functional, Homo sapiens"}, "[25]": {"assay": "Antiproliferative against human BEAS-2B cells measured after 48 hrs by CCK8 assay", "type": "toxicity, cell-based"}, "[26]": {"test_system": "HFL1", "assay": "Downregulation of phosphorylated JNK in TGF-beta1 induced HFL1 cells at 5 to 10 uM for 24 hrs by Western blotting analysis", "type": "functional, cell-based", "conditions": "Homo sapiens, dose 5-10 µM"}, "[27]": {"test_system": "HFL1", "assay": "Induction of apoptosis in HLF1 cells assessed as late apoptotic cells at 10 uM incubated for 24 hrs measured by annexinV-FITC/PI based flow cytometric analysis (reference value: 0.08%)", "type": "functional, Homo sapiens"}}, "note": "pIC50: −log10 of the molar value. The source made the active and inactive calls. No cut-off for these calls is given here."}
{"smiles": "CC(C)n1cc(-c2cc(C(=O)Nc3cccc(-c4nncn4C4CC4)n3)c(=O)n(Cc3ccccc3F)c2)cn1", "values": [{"measurement": "viability at 10 µM", "setting": "[1]", "value": 74.3, "unit": "%"}, {"measurement": "Activity", "setting": "[2]", "value": 0, "unit": "%"}, {"measurement": "Activity", "setting": "[3]", "value": 0, "unit": "%"}, {"measurement": "Activity", "setting": "[4]", "value": "Active"}, {"measurement": "pIC50", "setting": "[5]", "value": 8.04}, {"measurement": "Activity", "setting": "[6]", "value": 0, "unit": "%"}, {"measurement": "Activity", "setting": "[7]", "value": "Dose-Dependent Effect"}, {"measurement": "Activity", "setting": "[8]", "value": 19.4, "unit": "%"}, {"measurement": "viability at 5 µM", "setting": "[9]", "value": 80.5, "unit": "%"}, {"measurement": "IC50 at 48 h", "setting": "[10]", "value": 14.8, "unit": "µM"}, {"measurement": "Activity", "setting": "[11]", "value": 0.092, "unit": "%"}, {"measurement": "Activity", "setting": "[12]", "value": "Active"}, {"measurement": "IC50 at 48 h", "setting": "[13]", "value": 9.2, "unit": "µM"}, {"measurement": "Activity", "setting": "[14]", "value": "Active"}, {"measurement": "Activity", "setting": "[15]", "value": 0.069, "unit": "%"}, {"measurement": "Activity", "setting": "[16]", "value": "Dose-Dependent Effect"}, {"measurement": "IC50 at 48 h", "setting": "[17]", "value": 25, "unit": "µM"}, {"measurement": "Activity", "setting": "[18]", "value": "Active"}, {"measurement": "Activity", "setting": "[19]", "value": "Active"}, {"measurement": "Activity", "setting": "[20]", "value": "Dose-Dependent Effect"}, {"measurement": "Activity", "setting": "[21]", "value": 30, "unit": "%"}, {"measurement": "viability at 15 µM", "setting": "[22]", "value": 69.9, "unit": "%"}, {"measurement": "Activity", "setting": "[23]", "value": "Active"}, {"measurement": "Activity", "setting": "[24]", "value": 25.6, "unit": "%"}, {"measurement": "IC50 at 48 h", "setting": "[25]", "value": 33, "unit": "µM"}, {"measurement": "Activity", "setting": "[26]", "value": "Active"}, {"measurement": "Activity", "setting": "[27]", "value": 0.034, "unit": "%"}]}
